Test results from US9169241B2, “Quinolinyloxyphenylsulfonamides” (Max-Planck-Gesellschaft Zur Forderung der Wissenschaften …, priority 2009, dated 2015).
Values belong to the compound of their own block, whether it stands above or below them.

Legend:
[1] = tested on: Hs578T; test: Wound healing migration assay; type: cell-based; details: Homo sapiens, Hs-578T; HS578T cell line; Table Ib
Procedure: This method mimics cell migration during wound healing in vivo. The basic steps involve creating a “wound” in a cell monolayer, capturing the images at the beginning and at regular intervals during cell migration to close the wound, and comparing the images to quantify the migration rate of the cells. In detail, 150000 cell/24 well have been seeded and allowed to form a monolayer overnight. Subsequently a “wound” or “scratch” has been performed with a 1000 μl pipette tip. The STDV of wound size is normally below 10% at time point t0. The assay was stopped by fixation with 0.05% Crystal violet/20% methanol when control scratches were closed. The assay was terminated between 48 h and 72 h depending on the migration potential of the indicated cell line. The “wounds” were visualized with a Zeiss Axiovert S100 microscope (Carl Zeiss UK, Welwyn Garden City, UK). The tested compounds were used at 12.5 μM, 6.25, 3.125 μM and DMSO control. IC50 values have been calculated as 50% wound size in between t0 and t48 or t72.

[2] = tested on: Hs578T; test: Cell vitality assay (ATP assay, CellTiter-Glo); type: cell-based; details: Homo sapiens, Hs-578T; HS578T cell line, 72 h; Table Ib; read-out: IC50 ATP-Assay HS578T after 72 h
Procedure: The CellTiter-Glo® Luminescent Cell Viability Assay (Promega Corporation. Madison, Wis., USA) is method a determining the number of viable cells in culture based on quantification of the ATP being present which is an indicator of metabolically active cells was used according to manufacturers protocol, In detail the assay was performed in a 96 well format were 1000 cells/well were incubated with indicated compound at concentration of 12.5 μM, 6.25 μM, 3.125 μM, 1.56 μM, 0.78 μM, 0.39 μM, 0.195 μM as well as DMSO control for 72 h in 100 μl cell culture medium. IC50 values were calculated as 50% of ATP amount compared to DMSO control.
Protocol for the CellTiter-Glo® Luminescent Cell Viability Assay • 1. Prepare opaque-walled multiwell plates with mammalian cells in culture medium, 100 μl per well for 96-well plates • 2. Prepare control wells containing medium without cells to obtain a value for background luminescence. • 3. Add the compound to be tested to experimental wells, and incubate according to culture protocol. • 4. Equilibrate the plate and its contents at room temperature for approximately 30 minutes. • 5. Add a volume of CellTiter-Glo® Reagent (Promega Corporation. Madison, Wis.) equal to the volume of cell culture medium present in each well. • 6. Mix contents for 2 minutes on an orbital shaker to induce cell lysis. • 7. Allow the plate to incubate at room temperature for 10 minutes to stabilize luminescent signal. • 8. Record luminescence on Microplate Luminometer LB96V (Berthold Tchnologies, Bad Wildbad, Germany). An integration time of 0.1 and 1 second per well

[3] = tested on: Hs578T; test: Matrigel outgrowth assay/branching assay; type: cell-based; details: Homo sapiens, Hs-578T; HS578T cell line; Table Ib; read-out: Total branching inhibition in Matrigel HS578T
Procedure: The Matrigel outgrowth assay is based on the ability of tumor cell to penetrate a solid gel of extracellular matrix proteins mimicking the metastasis formation in vivo. While cells with low invasive potential appear as roundish cell or cell cluster, cells with high invasive potential penetrate the Matrigel and form polymorphic structures. In detail 65 μl of Matrigel matrix (Matrigel™ Matrix, BD Biosciences, Bedford, Mass., USA) with a concentration of 3 mg/ml have been polymerized in 96 well plates for 1 h at 37° C. Subsequently 5000 cell/well were seeded into each well containing cell culture medium and indicated compound with concentrations of 3.125 μM, 1.56 μM and 0.78 μM as well as DMSO control. After 48 h, 72 h and 96 h images of cell were taken on an inverted microscope using a 5× objective (Zeiss Axiovert S100 microscope Carl Zeiss UK, Welwyn Garden City, UK). Only compound concentrations were total branching inhibition was evident were accounted as positive. Method was used as previously described, with some modifications (Thompson E W, et al. Association of increased basement membrane invasiveness with absence of estrogen receptor and expression of vimentin in human breast cancer cell lines. J Cell Physiol 1992; 150:534-44).

Structure (SMILES): COc1cc2c(Oc3cccc(NS(=O)(=O)c4ccn(C)n4)c3)ccnc2cc1OCCCN1CCN(C)CC1 [Example 139, 1-Methyl-1H-pyrazole-3-sulfonic acid (3-{6-methoxy-7-[3-(4-methyl-piperazin-1-yl)-propoxy]-quinolin-4-yloxy}-phenyl)-amide]
IC50 [1]: 12.5 to 50 µM
IC50 [2]: 12.5 to 50 µM
IC50 [3]: 10 to 25 µM
melting point: 87 to 89 °C

Structure (SMILES): CCn1cc(S(=O)(=O)Nc2cccc(Oc3ccnc4cc(OCCCN5CCN(C)CC5)c(OC)cc34)c2)cn1 [Example 140, 1-Ethyl-1H-pyrazole-4-sulfonic acid (3-{6-methoxy-7-[3-(4-methyl-piperazin-1-yl)-propoxy]-quinolin-4-yloxy}-phenyl)-amide]
IC50 [1]: 12.5 to 50 µM
IC50 [2]: 12.5 to 50 µM
IC50 [3]: 10 to 25 µM
melting point: 87 to 90 °C

Structure (SMILES): COc1cc2c(Oc3cccc(NS(=O)(=O)c4c[nH]c(C)n4)c3)ccnc2cc1OCCCN1CCN(C)CC1 [Example 141, 2-Methyl-1H-imidazole-4-sulfonic acid (3-{6-methoxy-7-[3-(4-methyl-piperazin-1-yl)-propoxy]-quinolin-4-yloxy}-phenyl)-amide]
IC50 [1]: 12.5 to 50 µM
IC50 [2]: 12.5 to 50 µM
IC50 [3]: 10 to 25 µM
melting point: 118 to 120 °C

Structure (SMILES): COc1cc2c(Oc3cccc(NS(=O)(=O)C4CC4)c3)ccnc2cc1OCCCN1CCN(C)CC1 [Example 142, Cyclopropanesulfonic acid (3-{6-methoxy-7-[3-(4-methyl-piperazin-1-yl)-propoxy]-quinolin-4-yloxy}-phenyl)-amide]
IC50 [1]: 12.5 to 50 µM
IC50 [2]: 12.5 to 50 µM
IC50 [3]: 10 to 25 µM
melting point: 150 to 152 °C

Structure (SMILES): COc1cc2c(Oc3ccc(NS(=O)(=O)c4c[nH]c(C)n4)cc3F)ccnc2cc1OCCCN1CCCCC1C (centres unmarked) [Example 149, 2-Methyl-1H-imidazole-4-sulfonic acid (3-fluoro-4-{6-methoxy-7-[3-(2-methyl-piperidin-1-yl)-propoxy]-quinolin-4-yloxy}-phenyl)-amide]
IC50 [1]: 12.5 to 50 µM
IC50 [2]: 12.5 to 50 µM
IC50 [3]: 10 to 25 µM
melting point: 219 to 220 °C

Structure (SMILES): COc1cc2c(Oc3ccc(NS(=O)(=O)c4ccn(C)n4)cc3F)ccnc2cc1OCCCN1CCCCC1C (centres unmarked) [Example 150, 1-Methyl-1H-pyrazole-3-sulfonic acid (3-fluoro-4-{6-methoxy-7-[3-(2-methyl-piperidin-1-yl)-propoxy]-quinolin-4-yloxy}-phenyl)-amide]
IC50 [1]: 12.5 to 50 µM
IC50 [2]: ≤ 12.5 µM
IC50 [3]: 10 to 25 µM
melting point: 175 to 176 °C

Structure (SMILES): COc1cc2c(Oc3ccc(NS(=O)(=O)c4c(C)nn(C)c4C)cc3F)ccnc2cc1OCCCN1CCCCC1 [Example 159, 1,3,5-Trimethyl-1H-pyrazole-4-sulfonic acid {3-fluoro-4-[6-methoxy-7-(3-piperidin-1-yl-propoxy)-quinolin-4-yloxy]-phenyl}-amide]
IC50 [1]: 12.5 to 50 µM
IC50 [2]: ≤ 12.5 µM
IC50 [3]: 10 to 25 µM
melting point: 96 to 98 °C

More lines, main results first:

IC50 [1]: ≤ 12.5 µM
melting point: 164 to 166 °C
Structure (SMILES): COc1cc2c(Oc3cccc(NS(=O)(=O)c4ccccc4OC(F)(F)F)c3)ccnc2cc1OCCCN1CCN(C)CC1 [Example 126, N-(3-{6-Methoxy-7-[3-(4-methyl-piperazin-1-yl)-propoxy]-quinolin-4-yloxy}-phenyl)-2-trifluoromethoxy-benzenesulfonamide]
IC50 [2]: ≤ 12.5 µM
IC50 [3]: 10 to 25 µM

IC50 [1]: ≤ 12.5 µM
melting point: 188 to 189 °C
Structure (SMILES): COc1cc2c(Oc3cccc(NS(=O)(=O)c4cccs4)c3)ccnc2cc1OCCCN1CCN(C)CC1 [Example 129, Thiophene-2-sulfonic acid (3-{6-methoxy-7-[3-(4-methyl-piperazin-1-yl)-propoxy]-quinolin-4-yloxy}-phenyl)-amide]
IC50 [2]: ≤ 12.5 µM
IC50 [3]: ≤ 10 µM

IC50 [1]: 12.5 to 50 µM
melting point: 162 to 163 °C
Structure (SMILES): COc1cc2c(Oc3cccc(NS(=O)(=O)c4ccc(Cl)s4)c3)ccnc2cc1OCCCN1CCN(C)CC1 [Example 130, 5-Chloro-thiophene-2-sulfonic acid (3-{6-methoxy-7-[3-(4-methyl-piperazin-1-yl)-propoxy]-quinolin-4-yloxy}-phenyl)-amide]
IC50 [2]: ≤ 12.5 µM
IC50 [3]: ≤ 10 µM

IC50 [1]: 12.5 to 50 µM
melting point: 147 to 149 °C
Structure (SMILES): COc1cc2c(Oc3cccc(NS(=O)(=O)c4ccc(C)s4)c3)ccnc2cc1OCCCN1CCN(C)CC1 [Example 131, 5-Methyl-thiophene-2-sulfonic acid (3-{6-methoxy-7-[3-(4-methyl-piperazin-1-yl)-propoxy]-quinolin-4-yloxy}-phenyl)-amide]
IC50 [2]: ≤ 12.5 µM
IC50 [3]: 10 to 25 µM

IC50 [1]: 12.5 to 50 µM
melting point: 148 to 150 °C
Structure (SMILES): COc1cc2c(Oc3cccc(NS(=O)(=O)c4sc(NC(C)=O)nc4C)c3)ccnc2cc1OCCCN1CCN(C)CC1 [Example 132, N-[5-(3-{6-Methoxy-7-[3-(4-methyl-piperazin-1-yl)-propoxy]-quinolin-4-yloxy}-phenylsulfamoyl)-4-methyl-thiazol-2-yl]-acetamide]
IC50 [2]: 12.5 to 50 µM
IC50 [3]: 10 to 25 µM

IC50 [1]: ≤ 12.5 µM
melting point: 176 to 178 °C
Structure (SMILES): COc1cc2c(Oc3cccc(NS(=O)(=O)c4ccsc4)c3)ccnc2cc1OCCCN1CCN(C)CC1 [Example 133, Thiophene-3-sulfonic acid (3-{6-methoxy-7-[3-(4-methyl-piperazin-1-yl)-propoxy]-quinolin-4-yloxy}-phenyl)-amide]
IC50 [2]: ≤ 12.5 µM
IC50 [3]: ≤ 10 µM

IC50 [1]: 12.5 to 50 µM
melting point: 84 to 86 °C
Structure (SMILES): COC(=O)c1sccc1S(=O)(=O)Nc1cccc(Oc2ccnc3cc(OCCCN4CCN(C)CC4)c(OC)cc23)c1 [Example 135, 3-(3-{6-Methoxy-7-[3-(4-methyl-piperazin-1-yl)-propoxy]-quinolin-4-yloxy}-phenylsulfamoyl)-thiophene-2-carboxylic acid methyl ester]
IC50 [2]: 12.5 to 50 µM
IC50 [3]: 10 to 25 µM

IC50 [1]: 12.5 to 50 µM
melting point: 176 to 177 °C
Structure (SMILES): COc1cc2c(Oc3cccc(NS(=O)(=O)c4ccco4)c3)ccnc2cc1OCCCN1CCN(C)CC1 [Example 137, Furan-2-sulfonic acid (3-{6-methoxy-7-[3-(4-methyl-piperazin-1-yl)-propoxy]-quinolin-4-yloxy}-phenyl)-amide]
IC50 [2]: 12.5 to 50 µM
IC50 [3]: 10 to 25 µM

IC50 [1]: 12.5 to 50 µM
melting point: 200 to 202 °C
Structure (SMILES): COc1cc2c(Oc3cccc(NS(=O)(=O)c4c(C)noc4C)c3)ccnc2cc1OCCCN1CCN(C)CC1 [Example 138, 3,5-Dimethyl-isoxazole-4-sulfonic acid (3-{6-methoxy-7-[3-(4-methyl-piperazin-1-yl)-propoxy]-quinolin-4-yloxy}-phenyl)-amide]
IC50 [2]: 12.5 to 50 µM
IC50 [3]: 10 to 25 µM

IC50 [1]: ≤ 12.5 µM
melting point: 85 to 87 °C
Structure (SMILES): COc1cc2c(Oc3cccc(NS(=O)(=O)/C=C/c4ccccc4)c3)ccnc2cc1OCCCN1CCN(C)CC1 [Example 143, 2-Phenyl-ethenesulfonic acid (3-{6-methoxy-7-[3-(4-methyl-piperazin-1-yl)-propoxy]-quinolin-4-yloxy}-phenyl)-amide]
IC50 [2]: ≤ 12.5 µM
IC50 [3]: ≤ 10 µM
